The values that follow are results of earlier work, collected in US20180280392A1, “PHARMACEUTICAL PREPARATION COMPRISING CYCLIN INHIBITOR AND PREPARATION METHOD THEREOF” (Jiangsu Hansoh Pharmaceutical Group Co., Ltd., priority 2014, published 2018).

The test system of the data set is phosphorylation of retinoblastoma tumor suppressor (RB) in MDA-MB-435 breast cancer cells.

Like-named read-outs stand apart in the source and are kept apart here.

With `CC(=O)c1c(C)c2cnc(Nc3ccc(N4CCNCC4)cn3)nc2n(C2CCCC2)c1=O` [compound of formula I, 6-acetyl-8-cyclopentyl-5-methyl-2-(5-piperazin-1-yl-pyridin-2-yl-amino)-8H-pyrido[2,3-d]pyrimidin-7-one], the IC50 is 66 nM (Ser780 site, read-out: IC50, reduction of phosphorylation of RB on Ser780) and 63 nM (Ser795 site, read-out: IC50, reduction of phosphorylation of RB on Ser795).
